How the values were obtained:
FXa = FXa (Homo sapiens, UniProt P00742); experiment: Factor Xa inhibition (FXa-IC50); type: biochemical
From the text: The inhibition of factor Xa by the compounds according to the invention and the measurement of the anticoagulant and antithrombotic activity can be determined by conventional in-vitro or in-vivo methods. A suitable method is described, for example, by J. Hauptmann et al. in Thrombosis and Haemostasis 1990, 63, 220-223.
The inhibition of factor Xa can be measured, for example, by the method of T. Hara et al. in Thromb. Haemostas. 1994, 71, 314-319.

TF/FVIIa = TF/FVIIa (Homo sapiens, UniProt P08709); experiment: TF/factor VIIa inhibition (TF/FVIIa-IC50); type: biochemical
Sequence of TF/FVIIa (P08709 213-466 limits assumed): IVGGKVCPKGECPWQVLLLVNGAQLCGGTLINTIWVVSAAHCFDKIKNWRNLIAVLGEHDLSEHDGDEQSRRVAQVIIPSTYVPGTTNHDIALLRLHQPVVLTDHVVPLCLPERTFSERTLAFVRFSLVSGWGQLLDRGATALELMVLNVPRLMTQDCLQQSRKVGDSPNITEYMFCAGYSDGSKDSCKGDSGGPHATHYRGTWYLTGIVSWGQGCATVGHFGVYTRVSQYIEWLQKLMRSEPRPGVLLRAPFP
Sequence of TF/FVIIa (P08709 61-212 limits assumed): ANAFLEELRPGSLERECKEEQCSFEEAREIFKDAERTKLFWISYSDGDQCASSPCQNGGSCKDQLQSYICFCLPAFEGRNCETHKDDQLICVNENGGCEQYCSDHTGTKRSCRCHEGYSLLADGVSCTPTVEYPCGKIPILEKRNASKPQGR
Sequence of TF/FVIIa (P13726 33-295 partner): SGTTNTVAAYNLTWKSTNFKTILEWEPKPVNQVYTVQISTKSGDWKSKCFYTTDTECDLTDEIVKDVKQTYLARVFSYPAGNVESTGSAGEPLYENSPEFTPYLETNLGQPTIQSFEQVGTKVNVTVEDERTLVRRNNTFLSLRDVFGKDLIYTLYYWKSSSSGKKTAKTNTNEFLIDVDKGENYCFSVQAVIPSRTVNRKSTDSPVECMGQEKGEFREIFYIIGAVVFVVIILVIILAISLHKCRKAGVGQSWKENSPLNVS
From the text: The inhibition of factor VIIa by the compounds according to the invention and the measurement of the anticoagulant and antithrombotic activity can be determined by conventional in-vitro or in-vivo methods. A conventional method for the measurement of the inhibition of factor VIIa is described, for example, by H. F. Ronning et al. in Thrombosis Research 1996, 84, 73-81.

Sequence of FXa (P00742 235-488 limits assumed): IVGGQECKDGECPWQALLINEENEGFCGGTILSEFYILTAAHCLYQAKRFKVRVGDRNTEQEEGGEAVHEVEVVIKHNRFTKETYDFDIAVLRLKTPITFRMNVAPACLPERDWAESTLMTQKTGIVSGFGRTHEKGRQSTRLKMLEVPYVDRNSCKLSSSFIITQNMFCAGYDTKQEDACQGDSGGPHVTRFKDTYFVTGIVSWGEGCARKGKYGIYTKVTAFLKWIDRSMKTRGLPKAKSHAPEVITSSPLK
Sequence of FXa (P00742 41-179 limits assumed): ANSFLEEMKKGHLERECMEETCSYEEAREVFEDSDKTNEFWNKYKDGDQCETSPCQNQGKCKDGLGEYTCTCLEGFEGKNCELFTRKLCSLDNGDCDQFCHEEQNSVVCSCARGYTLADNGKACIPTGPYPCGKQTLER

Row | IC50 (FXa) | IC50 (TF/FVIIa) | SMILES
1 | 350 nM | 200 nM | Nc1nccc2ccc(OC(C(=O)Nc3ccc(N4CCCCC4=O)cc3)c3ccccc3)cc12 (stereo not shown) [AB, N-[4-(2-oxopiperidin-1-yl)phenyl]-2-(1-aminoisoquinolin-7-yloxy)-2-phenylacetamide]
2 | 350 nM | 220 nM | CCCC(Oc1ccc2ccnc(N)c2c1)C(=O)Nc1ccc(N2CCCCC2=O)cc1 (stereo not shown) [AA, N-[4-(2-Oxopiperidin-1-yl)phenyl]-2-(1-aminoisoquinolin-7-yloxy)-pentanamide]

— US7902223B2, “Phenyl derivatives as factor XA inhibitors” (Merck Patent GmbH, priority 2001, dated 2011)
